Columns and labels:
human PTPN1 (1-435) = human PTPN1 (1-435) (Homo sapiens (Human), UniProt P18031); test: Human PTPN1 Biochemical Assay; conditions: DiFMUP substrate, read-out: PTP1B IC50
Summary of the method: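 Read-out is DiFMUP hydrolysis fluorescence (360 nm excitation, 460 nm emission) after 1 h at room temperature, following 30 min enzyme–compound preincubation.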

human PTPN2 (1-387) = human PTPN2 (1-387) (Homo sapiens (Human), UniProt P17706); test: Human PTPN2 Biochemical Assay; conditions: DiFMUP substrate
Summary of the method: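 Human PTPN2 (1-387) preincubated 30 min at RT with compound (10-point 3-fold series) in Tris pH 7.4 buffer with 0.5 mM DTT, then DiFMUP substrate added for 1 h at RT. Fluorescence at ex 360/em 460 nm, normalised to no-enzyme and enzyme controls; EC50 from 4-parameter fit.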

human PTPN2 (1-387), sequence (P17706 other isoform, or with tags, fused parts or gaps): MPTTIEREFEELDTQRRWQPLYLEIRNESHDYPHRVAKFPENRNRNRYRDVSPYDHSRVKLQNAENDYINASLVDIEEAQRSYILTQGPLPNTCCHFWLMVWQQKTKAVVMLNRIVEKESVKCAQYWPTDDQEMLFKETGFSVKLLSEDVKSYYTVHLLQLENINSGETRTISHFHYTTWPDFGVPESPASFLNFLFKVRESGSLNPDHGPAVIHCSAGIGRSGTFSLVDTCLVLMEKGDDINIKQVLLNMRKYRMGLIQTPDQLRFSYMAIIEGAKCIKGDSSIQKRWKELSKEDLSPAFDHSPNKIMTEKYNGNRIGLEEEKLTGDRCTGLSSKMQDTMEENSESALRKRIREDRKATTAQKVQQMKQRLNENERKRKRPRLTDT
human PTPN1 (1-435), sequence (P18031 whole entry): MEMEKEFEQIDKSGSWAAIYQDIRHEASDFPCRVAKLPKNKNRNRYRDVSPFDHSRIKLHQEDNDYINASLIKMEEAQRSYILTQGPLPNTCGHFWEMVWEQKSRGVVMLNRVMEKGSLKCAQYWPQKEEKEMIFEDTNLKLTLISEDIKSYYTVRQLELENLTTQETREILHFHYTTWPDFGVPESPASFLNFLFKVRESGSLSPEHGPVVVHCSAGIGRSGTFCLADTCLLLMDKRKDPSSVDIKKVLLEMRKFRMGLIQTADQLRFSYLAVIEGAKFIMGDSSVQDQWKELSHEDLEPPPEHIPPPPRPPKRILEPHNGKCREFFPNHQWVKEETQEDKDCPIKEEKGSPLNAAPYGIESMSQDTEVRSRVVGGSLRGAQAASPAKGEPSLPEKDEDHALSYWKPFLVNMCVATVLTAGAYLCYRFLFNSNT

Row | IC50 (human PTPN1 (1-435)) [µM] | IC50 (human PTPN2 (1-387)) [µM] | Structure (SMILES)
1 | 1.38 | 0.648 | C[C@@H](NC(=O)c1ccc2sc(C(F)(F)P(=O)(O)O)c(C#N)c2c1)c1cccnn1 [Compound 186]
2 | 0.0109 | 0.00906 | O=C(NCc1cc[nH]n1)c1cc(OCCCC(F)(F)F)c2sc(C(F)(F)P(=O)(O)O)c(Br)c2c1 [Compound 201]
3 | 2.32 | 3.65 | O=C(NCc1cc[nH]n1)c1ccc2sc(C(F)(F)P(=O)(O)O)c(Br)c2c1 [Compound 202]
4 | 0.0172 | 0.0164 | CNC(=O)c1cc(OCCCC(F)(F)F)c2sc(C(F)(F)P(=O)(O)O)c(Br)c2c1 [Compound 203]
5 | 1.43 | 1.26 | CN(C)C(=O)c1cc(OCCCC(F)(F)F)c2sc(C(F)(F)P(=O)(O)O)c(Br)c2c1 [Compound 204]
6 | 0.0075 | 0.00695 | O=C(Nc1ccccc1)c1cc(OCCCC(F)(F)F)c2sc(C(F)(F)P(=O)(O)O)c(Br)c2c1 [Compound 205]
7 | 0.009 | 0.00804 | O=C(NC1CC(F)(F)C1)c1cc(OCCCC(F)(F)F)c2sc(C(F)(F)P(=O)(O)O)c(Br)c2c1 [Compound 206]
8 | 0.0116 | 0.00979 | O=C(NC1CC1(F)F)c1cc(OCCCC(F)(F)F)c2sc(C(F)(F)P(=O)(O)O)c(Br)c2c1 (stereo not drawn) [Compound 207]
9 | 0.0075 | 0.00696 | C[C@@H](NC(=O)c1cc(OCCCC(F)(F)F)c2sc(C(F)(F)P(=O)(O)O)c(Br)c2c1)c1cccnn1 [Compound 208]
10 | 0.0065 | 0.00463 | O=C(NCc1c[nH]nn1)c1cc(OCCCC(F)(F)F)c2sc(C(F)(F)P(=O)(O)O)c(Br)c2c1 [Compound 209]
11 | 0.132 | 0.0137 | C=C(C)C#Cc1cc(C(N)=O)cc2c(Br)c(C(F)(F)P(=O)(O)O)sc12 [Compound 210]
12 | 0.696 | 0.511 | CN(C)CCNC(=O)c1cc(OCCCC(F)(F)F)c2sc(C(F)(F)P(=O)(O)O)c(Br)c2c1 [Compound 211]
13 | 8.15 | 9.66 | O=C(Nc1ccc2sc(C(F)(F)P(=O)(O)O)c(Br)c2c1)c1ccc(F)cc1 [Compound 212, ((3-bromo-5-(4-fluorobenzamido)benzo[b]thiophen-2-yl)difluoromethyl)phosphonic acid]
14 | 5.29 | 6.36 | O=C(Nc1ccc2sc(C(F)(F)P(=O)(O)O)c(Br)c2c1)C(F)(F)F [Compound 213]
15 | 3.48 | 4.33 | O=C(Cc1cccnc1)Nc1ccc2sc(C(F)(F)P(=O)(O)O)c(Br)c2c1 [Compound 214]
16 | 7.55 | 8.43 | O=C(Nc1ccccc1)c1ccc2sc(C(F)(F)P(=O)(O)O)c(Cl)c2c1 [Compound 215, ((3-chloro-5-(phenylcarbamoyl)benzo[b]thiophen-2-yl)difluoromethyl)phosphonic acid]
17 | 6.41 | 5.76 | O=C(Nc1ccccc1)c1ccc2sc(C(F)(F)P(=O)(O)O)c(C(F)F)c2c1 [Compound 216, ((3-(difluoromethyl)-5-(phenylcarbamoyl)benzo[b]thiophen-2-yl)difluoromethyl)phosphonic acid]
18 | 1.84 | 7.06 | Cc1[nH]cnc1CNC(=O)c1ccc2sc(C(F)(F)P(=O)(O)O)c(Br)c2c1 [Compound 217, ((3-bromo-5-(((5-methyl-1H-imidazol-4-yl)methyl)carbamoyl)benzo[b]thiophen-2-yl)difluoromethyl)phosphonic acid]
19 | 2.9 | 2.05 | O=C(NCc1c[nH]cn1)c1ccc2sc(C(F)(F)P(=O)(O)O)c(Br)c2c1 [Compound 218]
20 | 4.66 | 3.74 | O=C(Nc1ccccc1)Nc1ccc2sc(C(F)(F)P(=O)(O)O)c(Br)c2c1 [Compound 219, ((3-bromo-5-(3-phenylureido)benzo[b]thiophen-2-yl)difluoromethyl)phosphonic acid]
21 | 7.14 | 6.06 | COc1cccc(NCc2ccc3sc(C(F)(F)P(=O)(O)O)c(Br)c3c2)c1 [Compound 220, ((3-bromo-5-(((3-methoxyphenyl)amino)methyl)benzo[b]thiophen-2-yl)difluoromethyl)phosphonic acid]
22 | 3.46 | 6.68 | O=P(O)(O)C(F)(F)c1sc2ccc(OCCc3ccccc3)cc2c1Br [Compound 221, ((3-bromo-5-phenethoxybenzo[b]thiophen-2-yl)difluoromethyl)phosphonic acid]
23 | 2.44 | 3.21 | O=P(O)(O)C(F)(F)c1sc2c(NCCC3CCCCC3)cccc2c1Br [Compound 223, ((3-bromo-7-((2-cyclohexylethyl)amino)benzo[b]thiophen-2-yl)difluoromethyl)phosphonic acid]
24 | 2.39 | 1.61 | CC(C)(O)CCCNc1cccc2c(Br)c(C(F)(F)P(=O)(O)O)sc12 [Compound 224]
25 | 2.03 | 2.69 | O=P(O)(O)C(F)(F)c1sc2c(NCCCC(F)(F)F)cccc2c1Br [Compound 226, ((3-bromo-7-((4,4,4-trifluorobutyl)amino)benzo[b]thiophen-2-yl)difluoromethyl)phosphonic acid]
26 | 1 | 0.856 | O=P(O)(O)C(F)(F)c1sc2ccc(-c3nnc[nH]3)cc2c1Br [Compound 227, ((3-bromo-5-(4H-1,2,4-triazol-3-yl)benzo[b]thiophen-2-yl)difluoromethyl)phosphonic acid]
27 | 1.85 | 1.61 | O=P(O)(O)C(F)(F)c1sc2ccc(-c3ncc[nH]3)cc2c1Br [Compound 228, ((3-bromo-5-(1H-imidazol-2-yl)benzo[b]thiophen-2-yl)difluoromethyl)phosphonic acid]
28 | 0.531 | 0.0862 | O=P(O)(O)C(F)(F)c1sc2ccc(-c3cnn[nH]3)cc2c1Br [Compound 229, ((3-bromo-5-(1H-1,2,3-triazol-5-yl)benzo[b]thiophen-2-yl)difluoromethyl)phosphonic acid]
29 | 1.03 | 1.73 | O=P(O)(O)C(F)(F)c1sc2ccc(-c3nc4ccccc4[nH]3)cc2c1Br [Compound 230, ((5-(1H-benzo[d]imidazol-2-yl)-3-bromobenzo[b]thiophen-2-yl)difluoromethyl)phosphonic acid]

Row | Structure (SMILES) | IC50 (human PTPN1 (1-435)) [µM] | IC50 (human PTPN2 (1-387)) [µM]
30 | Cn1cnc(CNC(=O)c2ccc3sc(C(F)(F)P(=O)(O)O)c(Br)c3c2)c1 [Compound 178] | 10.8 | 5.82
31 | O=C(NCc1ccon1)c1ccc2sc(C(F)(F)P(=O)(O)O)c(Br)c2c1 [Compound 179] | 2.84 | 2.57
32 | O=C(NC1(c2cccnc2)CC1)c1ccc2sc(C(F)(F)P(=O)(O)O)c(Br)c2c1 [Compound 180] | 13.7 | 6.63
33 | Cn1cnc(CNC(=O)c2ccc3sc(C(F)(F)P(=O)(O)O)c(Br)c3c2)n1 [Compound 181] | 2.42 | 4.1
34 | C[C@@H](NC(=O)c1ccc2sc(C(F)(F)P(=O)(O)O)c(Br)c2c1)c1ncc(F)cn1 [Compound 182] | 2.65 | 5.08
35 | Cc1cnc(F)c(CNC(=O)c2ccc3sc(C(F)(F)P(=O)(O)O)c(Br)c3c2)c1 [Compound 183] | 1.41 | 2
36 | O=C(NCc1ncc(F)cn1)c1ccc2sc(C(F)(F)P(=O)(O)O)c(Br)c2c1 [Compound 184] | 4.97 | 7.34
37 | C[C@H](NC(=O)c1ccc2sc(C(F)(F)P(=O)(O)O)c(Br)c2c1)c1ccccn1 [Compound 185] | 3.39 | 5.2
38 | O=C(NCc1n[nH]c(=O)[nH]1)c1ccc2sc(C(F)(F)P(=O)(O)O)c(Br)c2c1 [Compound 187] | 0.961 | 1.86
39 | O=C(NCc1cnsn1)c1ccc2sc(C(F)(F)P(=O)(O)O)c(Br)c2c1 [Compound 188] | 0.714 | 1.41
40 | O=C(NCc1cc(C2CC2)on1)c1ccc2sc(C(F)(F)P(=O)(O)O)c(Br)c2c1 [Compound 189] | 0.99 | 1.32
41 | Cc1cc(CNC(=O)c2ccc3sc(C(F)(F)P(=O)(O)O)c(Br)c3c2)no1 [Compound 190] | 1.02 | 1.83
42 | CCC(NC(=O)c1ccc2sc(C(F)(F)P(=O)(O)O)c(Br)c2c1)c1ncnn1C (stereo not drawn) [Compound 191] | 3.6 | 2.83
43 | O=C(NC(CO)c1ccccn1)c1ccc2sc(C(F)(F)P(=O)(O)O)c(Br)c2c1 (stereo not drawn) [Compound 192] | 4.59 | 7.98
44 | Cn1nncc1CNC(=O)c1ccc2sc(C(F)(F)P(=O)(O)O)c(Br)c2c1 [Compound 193] | 3.14 | 5.83
45 | CC(NC(=O)c1ccc2sc(C(F)(F)P(=O)(O)O)c(Br)c2c1)c1ccon1 (stereo not drawn) [Compound 194] | 1.74 | 3.2
46 | CCc1nc(CNC(=O)c2ccc3sc(C(F)(F)P(=O)(O)O)c(Br)c3c2)no1 [Compound 195] | 2.74 | 5.54
47 | CCc1noc(CNC(=O)c2ccc3sc(C(F)(F)P(=O)(O)O)c(Br)c3c2)n1 [Compound 196] | 2.1 | 3.54
48 | CCC(NC(=O)c1ccc2sc(C(F)(F)P(=O)(O)O)c(Br)c2c1)c1ccccn1 (stereo not drawn) [Compound 197] | 7.21 | 9.46
49 | Cc1c[nH]c(CNC(=O)c2ccc3sc(C(F)(F)P(=O)(O)O)c(Br)c3c2)n1 [Compound 198] | 5.71 | 5.46
50 | C[C@@H](NC(=O)c1ccc2sc(C(F)(F)P(=O)(O)O)c(Br)c2c1)c1cccnc1 [Compound 199] | 1.19 | 1.71
51 | C[C@H](NC(=O)c1ccc2sc(C(F)(F)P(=O)(O)O)c(Br)c2c1)c1cccnc1 [Compound 200] | 0.976 | 1.47

From US20250059220A1, “SUBSTITUTED BENZOTHIOPHENE DERIVATIVES AND METHODS OF USE THEREOF” (Merck Sharp & Dohme LLC, priority 2021, published 2025)
